Source: patent US20230192657A1, “1,2,4-TRIAZOLINONE CB1 INHIBITORS” (Goldfinch Bio, Inc., priority 2020, published 2023)
pIC50: −log10 of the molar value.

target: CB1 receptor (Homo sapiens, UniProt P21554); test: CB1 cAMP Antagonist Assay (LANCE Ultra cAMP kit); type: cell-based; details: Flp-In CHO cells stably expressing the CB1 receptor; forskolin and CP55940 agonist at EC90; cAMP FRET readout
Description: CB1 cAMP Antagonist Assay
LANCE Ultra cAMP kit (Perkin Elmer) was used to quantitate the amount of 3′,5′-cyclic adenosine monophosphate (cAMP) produced in Flp-In CHO (Invitrogen) cells stably expressing the CB1 receptor.
Forskolin was initially titrated to determine the response of the cells. The EC90 of forskolin was used for compound testing. CP55940 was titrated and used with EC90 of forskolin to determine the level of agonist stimulation. EC90 of the agonist was used for subsequent compound testing.
Forskolin (Sigma), CP55940 (Cayman Chemicals), and AM251 (MCE) were diluted in 100% DMSO, starting at 100 mM, 1 mM, and 1 mM respectively, in 3-fold serial dilutions. Test compounds were diluted in 100% DMSO starting from 10 mM, 3-fold dilutions. The cAMP assay buffer contains 1x Hank’s Buffered Saline Solution with Ca^2+ and Mg^2+ (Invitrogen), 5.3 mM HEPES (Invitrogen), 0.05% BSA, 0.5 mM IBMX (Sigma).
For all assays, cells were harvested, counted, and diluted in cAMP assay buffer to 1× 10^5 cells/mL. Only cells with viability >85% were used for the assay. Cells were seeded at 1000 cells/well in 384-well plates and 10 nL/well AM251 or test compound was added and incubated at 37° C. for 10 min. […] To detect the amount of cAMP produced, 5 µL of a 100x diluted stock of Eu-cAMP tracer and 5 µL of 200x diluted stock of Ulight-anti-cAMP were added to each well, and the plate incubated at 25° C. for 15 min. The FRET signal was read using an EnVision microplate reader (λex=320 nm, λem=615 nm and 665 nm).
The IC50 is determined by fitting the percentage of inhibition as a function of compound concentrations with the Hill equation, using a 4-parameter fit in either XLfit or GraphPad Prism.

Chain of CB1 receptor (P21554 whole entry): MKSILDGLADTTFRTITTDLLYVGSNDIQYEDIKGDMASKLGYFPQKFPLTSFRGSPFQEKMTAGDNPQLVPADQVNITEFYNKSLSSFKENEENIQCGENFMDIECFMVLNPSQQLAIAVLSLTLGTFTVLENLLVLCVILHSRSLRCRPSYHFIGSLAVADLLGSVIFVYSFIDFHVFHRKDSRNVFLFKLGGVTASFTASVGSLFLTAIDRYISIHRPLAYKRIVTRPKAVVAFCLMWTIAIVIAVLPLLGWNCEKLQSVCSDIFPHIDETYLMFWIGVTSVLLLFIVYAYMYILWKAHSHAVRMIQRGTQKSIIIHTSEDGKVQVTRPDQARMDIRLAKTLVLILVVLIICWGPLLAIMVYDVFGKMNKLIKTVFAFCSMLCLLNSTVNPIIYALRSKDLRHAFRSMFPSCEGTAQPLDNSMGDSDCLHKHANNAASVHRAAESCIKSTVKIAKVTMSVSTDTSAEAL

Row | SMILES | pIC50
1 | Cn1nc(N2C[C@@]3(CCc4ccccc43)C(c3ccc(Cl)cc3)=N2)n(C)c1=O [Compound 141] | 5.30 to 6.00
2 | Cn1c(N2CC(c3ccccc3)C(c3ccc(Cl)cc3)=N2)nn(Cc2ccc(C(=O)NCCO)cc2)c1=O (stereo not drawn) [Compound 173] | 5.30 to 6.00
3 | Cn1c(N2CC(c3ccccc3)C(c3ccc(Cl)cc3)=N2)nn(Cc2ccccc2Cl)c1=O (stereo not drawn) [Compound 171] | > 7.00
4 | C[C@@H](C(N)=O)n1c(N2C[C@H](c3ccccc3)C(c3ccc(Cl)cc3)=N2)n[nH]c1=O [Compound 203, (2S)-2-[3-[(4S)-3-(4-chlorophenyl)-4-phenyl-4,5-dihydropyrazol-1-yl]-5-oxo-1H-1,2,4-triazol-4-yl]propanamide] | < 5.30
5 | Cn1c(N2C[C@@H](c3ccccc3)C(c3ccc(Cl)cc3)=N2)nn(-c2ccc(Cl)cc2)c1=O [Compound 100] | < 5.30
6 | O=c1n(Cc2ccc(Cl)cc2)nc(N2CC3(CCc4ccccc43)C(c3ccc(Cl)cc3)=N2)n1CCO (stereo in doubt) [Compound 121, 3-[(1S)-3-(4-chlorophenyl)-1,2,3,5-tetrahydrospiro[indene-1,4-pyrazol]-1-yl]-1-[(4-chlorophenyl)methyl]-4-(2-hydroxyethyl)-4,5-dihydro-1H-1,2,4-triazol-5-one] | 6.00 to 7.00
7 | C[C@H](C(N)=O)n1c(N2C[C@H](c3ccccc3)C(c3ccc(Cl)cc3)=N2)nn(Cc2ccc(Cl)cn2)c1=O [Compound 205] | > 7.00
8 | Cc1cc(Cn2nc(N3CC(c4ccccc4)C(c4ccc(Cl)cc4)=N3)n(C)c2=O)ccc1Cl (stereo not drawn) [Compound 178] | > 7.00
9 | O=c1[nH]nc(N2C[C@H](c3ccccc3)C(c3ccc(Cl)cc3)=N2)[nH]1 [Compound 211, 5-[(4S)-3-(4-chlorophenyl)-4-phenyl-4,5-dihydropyrazol-1-yl]-2,4-dihydro-1,2,4-triazol-3-one] | < 5.30
10 | Cn1c(N2CC(c3ccccc3)C(c3ccc(Cl)cc3)=N2)nn(Cc2cccc(C#N)c2)c1=O (stereo not drawn) [Compound 170] | > 7.00
11 | Cn1c(N2C[C@@H](c3ccccc3)C(c3ccc(Cl)cc3)=N2)nn(Cc2ccc(CN3CCOCC3)cc2)c1=O [Compound 134] | 5.30 to 6.00
12 | Cn1c(N2C[C@@]3(CCc4ccccc43)C(c3ccc(Cl)cc3)=N2)nn(Cc2ccc(Cl)cc2)c1=O [Compound 113] | 5.30 to 6.00
13 | O=c1n(-c2ccc(Cl)cc2)nc(N2C[C@]3(CCc4ccccc43)C(c3ccc(Cl)cc3)=N2)n1CCO [Compound 114, 1-(4-chlorophenyl)-3-[(1R)-3-(4-chlorophenyl)-1,2,3,5-tetrahydrospiro[indene-1,4-pyrazol]-1-yl]-4-(2-hydroxyethyl)-4,5-dihydro-1H-1,2,4-triazol-5-one] | 6.00 to 7.00
14 | C[C@H](C(N)=O)n1c(N2C[C@H](c3ccccc3)C(c3ccc(Cl)cc3)=N2)nn(Cc2ccc(Cl)cc2)c1=O [Compound 174] | > 7.00
15 | C[C@@H](C(N)=O)n1c(N2C[C@@H](c3ccccc3)C(c3ccc(Cl)cc3)=N2)nn(Cc2ccc(CN3CCOCC3)cc2)c1=O [Compound 159] | 5.30 to 6.00
16 | C[C@H](C(N)=O)n1c(N2C[C@@H](c3ccccc3)C(c3ccc(Cl)cc3)=N2)n[nH]c1=O [Compound 199] | < 5.30
17 | C[C@@H](c1ccc(Cl)cc1)n1nc(N2CC(c3ccccc3)C(c3ccc(Cl)cc3)=N2)n(CC(N)=O)c1=O (stereo in doubt) [Compound 150, 2-[3-[(4S)-3-(4-chlorophenyl)-4-phenyl-4,5-dihydropyrazol-1-yl]-1-[(1S)-1-(4-chlorophenyl)ethyl]-5-oxo-1,2,4-triazol-4-yl]acetamide] | 6.00 to 7.00
18 | NC(=O)Cn1c(N2C[C@@]3(CCc4ccccc43)C(c3ccc(Cl)cc3)=N2)nn(Cc2ccc(Cl)cc2)c1=O [Compound 125, 2-[3-[(1S)-3-(4-chlorophenyl)-1,2,3,5-tetrahydrospiro[indene-1,4-pyrazol]-1-yl]-1-[(4-chlorophenyl)methyl]-5-oxo-4,5-dihydro-1H-1,2,4-triazol-4-yl]acetamide] | 5.30 to 6.00

Next, values leading:

Row | pIC50 | SMILES
19 | < 5.30 | O=c1n(-c2ccc(Cl)cc2)nc(N2C[C@@]3(CCc4ccccc43)C(c3ccc(Cl)cc3)=N2)n1CCO [Compound 112]
20 | < 5.30 | Cn1c(N2C[C@@H](c3ccccc3)C(c3ccc(Cl)cc3)=N2)nn(-c2ccc(CN3CCOCC3)cc2)c1=O [Compound 146]
21 | > 7.00 | Cc1ccc(Cn2nc(N3C[C@H](c4ccccc4)C(c4ccc(Cl)cc4)=N3)n(C)c2=O)cc1 [Compound 163]
22 | 6.00 to 7.00 | NC(=O)Cn1c(N2C[C@H](c3ccccc3)C(c3ccc(Cl)cc3)=N2)nn(Cc2ccc(CN3CCOCC3)cc2)c1=O [Compound 145, 2-[3-[(4S)-3-(4-chlorophenyl)-4-phenyl-4,5-dihydro-1H-pyrazol-1-yl]-1-([4-[(morpholin-4-yl)methyl]phenyl]methyl)-5-oxo-4,5-dihydro-1H-1,2,4-triazol-4-yl]acetamide]
23 | < 5.30 | Cn1c(N2C[C@@H](c3ccccc3)C(c3ccc(Cl)cc3)=N2)nn(CCc2ccc(C(N)=O)cc2)c1=O [Compound 212]
24 | 6.00 to 7.00 | Cn1c(N2CC(c3ccccc3)C(c3ccc(Cl)cc3)=N2)nn(Cc2cccc(C(N)=O)c2)c1=O (stereo not drawn) [Compound 182]
25 | < 5.30 | Cn1c(N2C[C@@H](c3ccccc3)C(c3ccc(Cl)cc3)=N2)nn(CCc2ccc(C(=O)NCCO)cc2)c1=O [Compound 210]
26 | 6.00 to 7.00 | Cn1c(N2C[C@H](c3ccccc3)C(c3ccc(Cl)cc3)=N2)nn(CCc2ccc(C(N)=O)cc2)c1=O [Compound 202, 4-(2-[3-[(4S)-3-(4-chlorophenyl)-4-phenyl-4,5-dihydropyrazol-1-yl]-4-methyl-5-oxo-1,2,4-triazol-1-yl]ethyl)benzamide]
27 | 5.30 to 6.00 | COc1ccc(Cn2nc(N3C[C@@H](c4ccccc4)C(c4ccc(Cl)cc4)=N3)n(C)c2=O)cc1 [Compound 142]
28 | > 7.00 | C[C@@H](C(=O)NCCO)n1c(N2C[C@H](c3ccccc3)C(c3ccc(Cl)cc3)=N2)nn(Cc2ccc(Cl)cc2)c1=O [Compound 184, (2S)-2-[3-[(4S)-3-(4-chlorophenyl)-4-phenyl-4,5-dihydropyrazol-1-yl]-1-[(4-chlorophenyl)methyl]-5-oxo-1,2,4-triazol-4-yl]-N-(2-hydroxyethyl)propanamide]
29 | 6.00 to 7.00 | Cn1c(N2C[C@H](c3ccccc3)C(c3ccc(Cl)cc3)=N2)nn(-c2ccc(CN3CCOCC3)cc2)c1=O [Compound 144, 3-[(4S)(4-Chlorophenyl)-4-Phenyl-4,5-Dihydro-1H-Pyrazol-1-yl]-4-Methyl-1-[4-[(Morpholin-4-yl)Methyl] Phenyl]-4,5-Dihydro-1H-1,2,4-Triazol-5-One]
30 | < 5.30 | O=C(O)CCn1c(N2C[C@]3(CCc4ccccc43)C(c3ccc(Cl)cc3)=N2)nn(Cc2ccc(Cl)cc2)c1=O [Compound 127]
31 | > 7.00 | Cn1c(N2C[C@@H](c3ccccc3)C(c3ccc(Cl)cc3)=N2)nn(Cc2ccc(Cl)cc2)c1=O [Compound 103]
32 | < 5.30 | O=c1[nH]nc(N2C[C@@H](c3ccccc3)C(c3ccc(Cl)cc3)=N2)[nH]1 [Compound 208, 5-[(4R)-3-(4-chlorophenyl)-4-phenyl-4,5-dihydropyrazol-1-yl]-2,4-dihydro-1,2,4-triazol-3-one]
33 | < 5.30 | C[C@H](C(N)=O)n1c(N2C[C@H](c3ccccc3)C(c3ccc(Cl)cc3)=N2)n[nH]c1=O [Compound 206]
34 | > 7.00 | COC(=O)c1ccc(Cn2nc(N3CC(c4ccccc4)C(c4ccc(Cl)cc4)=N3)n(C)c2=O)cc1 (stereo not drawn) [Compound 168]
35 | 5.30 to 6.00 | NC(=O)Cn1c(N2C[C@@]3(CCc4ccccc43)C(c3ccc(Cl)cc3)=N2)nn(CC2CCCCC2)c1=O [Compound 147, 2-[3-[(1S)-3-(4-chlorophenyl)-1,2,3,5-tetrahydrospiro[indene-1,4-pyrazol]-1-y1]-1-(cyclohexylmethyl)-5-oxo-4,5-dihydro-1H-1,2,4-triazol-4-yl]acetamide]
36 | 6.00 to 7.00 | O=c1n(Cc2ccc(Cl)cc2)nc(N2CC3(CCc4ccccc43)C(c3ccc(Cl)cc3)=N2)n1CCO (stereo in doubt) [Compound 118, 3-[(1R)-3-(4-chlorophenyl)-1,2,3,5-tetrahydrospiro[indene-1,4-pyrazol]-1-yl]-1-[(4-chlorophenyl)methyl]-4-(2-hydroxyethyl)-4,5-dihydro-1H-1,2,4-triazol-5-one]
